Source: paper PMC7226469, “Polyketide-Derived Secondary Metabolites from a Dothideomycetes Fungus, Pseudopalawania siamensis gen. et sp. nov., (Muyocopronales) with Antimicrobial and Cytotoxic Activities” (Biomolecules, 2020)
Converted amounts (≈) assume the structure as drawn. Structures can show the parent of a compound that is named as a salt. Where two headings read alike, the source gives them in different places.

Assays:
Mouse fibroblast L929 = experiment: In vitro cytotoxicity, MTT assay; format: cell-based
Description: (§1) Gentamicin, kanamycin, nystatin, and oxytetracycline were used as positive controls against tested organisms. […] Epothilone B and methanol were used as positive and negative control, respectively.
(§2) The polyketides 1–5 were evaluated for their antimicrobial activity against selected microorganisms (Table 3) and cytotoxicity against two mammalian cell lines, HeLa cells KB3.1 and mouse fibroblast cell line L929 (Table 4). The starting concentration for antimicrobial assay and cytotoxicity assay were 66.7 and 300 µg/mL, respectively and the substances were dissolved in MeOH (1 mg/mL). […] Results were expressed as MIC or minimum inhibitory concentration (μg/mL) and IC50 or half maximal inhibitory concentration (μM) (Table 3 and Table 4).

HeLa cells KB3.1 = experiment: In vitro cytotoxicity, MTT assay; format: cell-based; details: Homo sapiens
Description: as §1, §2

[1] = tested on: Schizosaccharomyces pombe; experiment: MIC, 96-well serial dilution; format: cell-based; details: strain DSM 70572; starting concentration 66.7 µg/mL; control volume in brackets
Description: as §1, §2

Candida albicans = experiment: MIC, 96-well serial dilution; format: cell-based
Description: as §1, §2

Cryptococcus neoformans = experiment: MIC, 96-well serial dilution; format: cell-based; details: strain DSM 15466; starting concentration 66.7 µg/mL; control volume in brackets
Description: as §1, §2

Rhodoturula glutinis = experiment: MIC, 96-well serial dilution; format: cell-based; details: strain DSM 10134; starting concentration 66.7 µg/mL; control volume in brackets
Description: as §1, §2

Pichia anomala = experiment: MIC, 96-well serial dilution; format: cell-based; details: strain DSM 6766; starting concentration 66.7 µg/mL; control volume in brackets
Description: as §1, §2

Pseudomonas aeruginosa = experiment: MIC, 96-well serial dilution; format: cell-based; details: strain PA14; starting concentration 66.7 µg/mL; control volume in brackets; further: key: (-): no inhibition
Description: as §1, §2

Mucor hiemalis = experiment: MIC, 96-well serial dilution; format: cell-based; on Minimum Inhibitory Concentration (MIC): key: (-): no inhibition
Description: as §1, §2

[2] = tested on: Chromobacterium violaceum; experiment: MIC, 96-well serial dilution; format: cell-based; details: strain DSM 30191, starting concentration 66.7 µg/mL, control volume in brackets; further: key: (-): no inhibition
Description: as §1, §2

Bacillus subtilis = experiment: MIC, 96-well serial dilution; format: cell-based; details: for MIC: Bacillus subtilis
Description: as §1, §2

Micrococcus luteus = experiment: MIC, 96-well serial dilution; format: cell-based; details: for MIC: Micrococcus luteus
Description: as §1, §2

Staphylococcus aureus = experiment: MIC, 96-well serial dilution; format: cell-based; details: for MIC: Staphylococcus aureus
Description: as §1, §2

Escherichia coli = experiment: MIC, 96-well serial dilution; format: cell-based; details: strain DSM 1116, starting concentration 66.7 µg/mL, control volume in brackets; further: key: (-): no inhibition
Description: as §1, §2

[3] = tested on: HeLa cells KB3.1 and mouse fibroblast cell line L929; experiment: Cytotoxicity against two mammalian cell lines (summary statements); details: HeLa KB3.1 and L929
Description: as §1, §2

[4] = tested on: various fungal and bacterial strains; experiment: Antimicrobial activity against selected microorganisms (summary statements); format: cell-based; details: for Antimicrobial activity (in words): fungi and bacteria of Table 3
Description: as §1, §2

CCR5-tropic HIV-1 = tested on: CCR5-tropic HIV-1; parameters: method as in PMID 29258357; details: inhibition of infection; cited from earlier work
E. coli = tested on: E. coli; parameters: method as in PMID 30258223; details: cited from earlier work
[5] = tested on: MDA-MB-435 human melanoma cells; parameters: method as in PMID 23232928; details: cited from earlier work
[6] = tested on: SW620 human colorectal adenocarcinoma cell lines; parameters: method as in PMID 23232928; details: cited from earlier work
B. subtilis = tested on: B. subtilis; parameters: method as in PMID 30258223; details: cited from earlier work
CXCR4-tropic HIV-1 = tested on: CXCR4-tropic HIV-1; parameters: method as in PMID 29258357; details: inhibition of infection; cited from earlier work
M. luteus = tested on: M. luteus; parameters: method as in PMID 30258223; details: cited from earlier work
[7] = tested on: Pseudoalteromonas nigrifaciens; parameters: method as in PMID 30258223; details: cited from earlier work
Mycobacterium smegmatis = experiment: MIC, 96-well serial dilution; format: cell-based
Description: as §1, §2

[8] = tested on: several cancer cell lines; parameters: method as in PMID 30258223; details: cell proliferation inhibition and apoptosis induction; cited from earlier work
[9] = parameters: method as in PMID 30258223; details: cited from earlier work
[10] = MTT assay, mouse fibroblast L929, starting concentration 66 μg/mL, read-out: IC50
[11] = MTT assay, HeLa cells KB3.1, starting concentration 66 μg/mL, read-out: IC50
[12] = strain DSM 6766, starting concentration 66.7 µg/mL, control volume in brackets
[13] = DSM10, strain DSM 10, starting concentration 66.7 µg/mL, control volume in brackets, read-out: Minimum Inhibitory Concentration (MIC)
[14] = DSM1790, strain DSM 1790, starting concentration 66.7 µg/mL, control volume in brackets, read-out: Minimum Inhibitory Concentration (MIC)
[15] = DSM346, strain DSM 346, starting concentration 66.7 µg/mL, control volume in brackets, read-out: Minimum Inhibitory Concentration (MIC)
[16] = strain DSM 10, starting concentration 66.7 µg/mL, control volume in brackets
[17] = strain DSM 1790, starting concentration 66.7 µg/mL, control volume in brackets
[18] = strain DSM 346, starting concentration 66.7 µg/mL, control volume in brackets

SMILES: C/C(=C\c1csc(C)n1)[C@@H]1C[C@@H]2O[C@]2(C)CCC[C@H](C)[C@H](O)[C@@H](C)C(=O)C(C)(C)[C@@H](O)CC(=O)O1 [Epothilone B, reference compound]
- IC50 (Mouse fibroblast L929; Mus musculus, L929): 0.0018 µM
- IC50 (HeLa cells KB3.1): 8.9e-05 µM

SMILES: C[C@@H]1[C@H](O)[C@@H](C)/C=C/C=C/CC/C=C/C=C/C=C/C=C/C(O[C@H]2O[C@H](C)[C@@H](O)[C@H](N)[C@@H]2O)CC2O[C@](O)(CC(O)C(O)CCC(O)CC(O)CC(O)CC(=O)O[C@H]1C)CC(O)C2C(=O)O (stereo partly drawn) [N, nystatin]
- Minimum Inhibitory Concentration (MIC) [1]: 33.3 (20 µL N) μg/mL
- Minimum Inhibitory Concentration (MIC) (Candida albicans; strain DSM 1665, starting concentration 66.7 µg/mL, control volume in brackets): 66.7 (20 µL N) μg/mL
- Minimum Inhibitory Concentration (MIC) (Cryptococcus neoformans): 66.7 (20 µL N) μg/mL
- Minimum Inhibitory Concentration (MIC) (Rhodoturula glutinis): 16.7 (20 µL N) μg/mL
- Minimum Inhibitory Concentration (MIC) (Pichia anomala): 66.7 (20 µL N) μg/mL

SMILES: COC(=O)C1(C2OC(=O)CC2C)CC(=O)c2c(O)ccc(-c3ccc4c(c3O)C(=O)C3(O)C5(O)CC(C)C(O)C3(O4)C(=O)O5)c2O1 (stereo not drawn) [Compound 1, pseudopalawanone]
- IC50 (Mouse fibroblast L929; [10]): 50 µM
- IC50 (HeLa cells KB3.1; [11]): 29.7 µM
- Minimum Inhibitory Concentration (MIC) (Pseudomonas aeruginosa): -
- Minimum Inhibitory Concentration (MIC) (Mucor hiemalis; [12]): -
- Minimum Inhibitory Concentration (MIC) [2]: -
- MIC (Bacillus subtilis; [13]): 66.7 µg/mL (≈ 104 µM)
- MIC (Micrococcus luteus; [14]): 66.7 µg/mL (≈ 104 µM)
- MIC (Staphylococcus aureus; [15]): 66.7 µg/mL (≈ 104 µM)
- Minimum Inhibitory Concentration (MIC) (Escherichia coli): -

SMILES: Cc1ccc(C(=O)c2c(O)cccc2C(=O)O)c(O)c1 [Compound 5, cephalanone F]
- Cytotoxic activity (in words) [3]: neither antimicrobial nor cytotoxic activities
- Antimicrobial activity (in words) [4]: neither antimicrobial nor cytotoxic activities
- IC50 (Mouse fibroblast L929; [10]): > 103 µM
- IC50 (HeLa cells KB3.1; [11]): > 200 µM
- Minimum Inhibitory Concentration (MIC) (Pseudomonas aeruginosa): -
- Minimum Inhibitory Concentration (MIC) (Mucor hiemalis; [12]): -
- Minimum Inhibitory Concentration (MIC) [2]: -
- Minimum Inhibitory Concentration (MIC) (Bacillus subtilis; [16]): -
- Minimum Inhibitory Concentration (MIC) (Micrococcus luteus; [17]): -
- Minimum Inhibitory Concentration (MIC) (Staphylococcus aureus; [18]): -
- Minimum Inhibitory Concentration (MIC) (Escherichia coli): -

SMILES: CN(C)[C@@H]1C(O)=C(C(N)=O)C(=O)[C@@]2(O)C(O)=C3C(=O)c4c(O)cccc4[C@@](C)(O)[C@H]3[C@H](O)[C@@H]12 [O, oxytetracycline hydrochloride, reference compound]
- MIC ([2]; Chromobacterium violaceum, DSM30191, read-out: Minimum Inhibitory Concentration (MIC)): 1.7 µg/mL
- MIC (Bacillus subtilis; [13]): 8.3 µg/mL
- MIC (Micrococcus luteus; [14]): 0.4 µg/mL
- MIC (Staphylococcus aureus; [15]): 0.2 µg/mL
- MIC (Escherichia coli; Escherichia coli, DSM1116, read-out: Minimum Inhibitory Concentration (MIC)): 3.3 µg/mL

SMILES: C[C@H]1CC(O)=C2C(=O)c3c(ccc(-c4ccc(O)c5c4O[C@]4(C(=O)O)C(=C(O)C[C@H](C)[C@@H]4O)C5=O)c3O)O[C@@]2(C(=O)O)[C@H]1O [Compound 3, penicillixanthone A]
- Anti-HIV-1 activity (in words) (CCR5-tropic HIV-1): inhibiting
- Antibacterial activity (in words) (E. coli): moderate antibacterial activity
- Cytotoxic effects (in words) [5]: moderate cytotoxic effects
- Cytotoxic effects (in words) [6]: moderate cytotoxic effects
- Antibacterial activity (in words) (B. subtilis): moderate antibacterial activity
- Anti-HIV-1 activity (in words) (CXCR4-tropic HIV-1): inhibiting
- Antibacterial activity (in words) (M. luteus): moderate antibacterial activity
- Antibacterial activity (in words) [7]: moderate antibacterial activity
- IC50 (Mouse fibroblast L929; [10]): > 103 µM
- IC50 (HeLa cells KB3.1; [11]): 17.2 µM
- Minimum Inhibitory Concentration (MIC) (Pseudomonas aeruginosa): -
- MIC (Mucor hiemalis; Mucor hiemalis, DSM6766, strain DSM 6766, starting concentration 66.7 µg/mL, control volume in brackets, read-out: Minimum Inhibitory Concentration (MIC)): 66.7 µg/mL (≈ 109 µM)
- Inhibition of Mucor hiemalis (in words) (Mucor hiemalis; comparable to nystatin): inhibited
- Minimum Inhibitory Concentration (MIC) [2]: -
- MIC (Bacillus subtilis; [13]): 4.2 µg/mL (≈ 6.88 µM)
- MIC (Micrococcus luteus; [14]): 33.3 µg/mL (≈ 54.5 µM)
- MIC (Staphylococcus aureus; [15]): 33.3 µg/mL (≈ 54.5 µM)
- Minimum Inhibitory Concentration (MIC) (Escherichia coli): -

SMILES: NC[C@H]1O[C@H](O[C@H]2[C@H](O)[C@@H](O[C@H]3O[C@H](CO)[C@@H](O)[C@H](N)[C@H]3O)[C@H](N)C[C@@H]2N)[C@H](O)[C@@H](O)[C@@H]1O [K, kanamycin, reference compound]
- Minimum Inhibitory Concentration (MIC) (Mycobacterium smegmatis; strain ATCC 700084, starting concentration 66.7 µg/mL, control volume in brackets): 3.3 (2 µL K) μg/mL

SMILES: COC(=O)C1(C2OC(=O)CC2C)CC(=O)c2c(O)cccc2O1 (stereo not drawn) [Compound 4, paecilin B]
- Cytotoxic activity (in words) [3]: neither antimicrobial nor cytotoxic activities
- Antimicrobial activity (in words) [4]: neither antimicrobial nor cytotoxic activities
- IC50 (Mouse fibroblast L929; [10]): > 103 µM
- IC50 (HeLa cells KB3.1; [11]): > 200 µM
- Minimum Inhibitory Concentration (MIC) (Pseudomonas aeruginosa): -
- Minimum Inhibitory Concentration (MIC) (Mucor hiemalis; [12]): -
- Minimum Inhibitory Concentration (MIC) [2]: -
- Minimum Inhibitory Concentration (MIC) (Bacillus subtilis; [16]): -
- Minimum Inhibitory Concentration (MIC) (Micrococcus luteus; [17]): -
- Minimum Inhibitory Concentration (MIC) (Staphylococcus aureus; [18]): -
- Minimum Inhibitory Concentration (MIC) (Escherichia coli): -

SMILES: C[C@H]1CC(O)=C2C(=O)c3c(O)ccc(-c4ccc(O)c5c4O[C@]4(C(=O)O)C(=C(O)C[C@H](C)[C@H]4O)C5=O)c3O[C@@]2(C(=O)O)[C@@H]1O [Compound 2, 4,4′-secalonic acid D]
- Inhibitory activity against Gram-positive bacteria (in words) ([4]; Bacillus subtilis, Micrococcus luteus, Mycobacterium smegmatis, Staphylococcus aureus): showed inhibitory activity
- Antitumor activity (in words) [8]: “potent” antitumor activity
- Toxicity (in words) [9]: low toxicity
- IC50 (Mouse fibroblast L929; [10]): 14.1 µM
- IC50 (HeLa cells KB3.1; [11]): 3.9 µM
- Minimum Inhibitory Concentration (MIC) (Pseudomonas aeruginosa): -
- Minimum Inhibitory Concentration (MIC) (Mucor hiemalis; [12]): -
- Activity against Mycobacterium smegmatis (in words) (Mycobacterium smegmatis): showed activity
- MIC (Mycobacterium smegmatis; Mycolicibacterium smegmatis, ATCC700084, read-out: Minimum Inhibitory Concentration (MIC)): 66.7 µg/mL (≈ 109 µM)
- MIC (Candida albicans; Candida albicans, DSM1665, read-out: Minimum Inhibitory Concentration (MIC)): 66.7 µg/mL (≈ 109 µM)
- Inhibition of Candida albicans (in words) (Candida albicans; comparable to nystatin): showed inhibition
- Minimum Inhibitory Concentration (MIC) [2]: -
- MIC (Bacillus subtilis; DSM10, read-out: Minimum Inhibitory Concentration (MIC)): 1 µg/mL (≈ 1.64 µM)
- MIC (Micrococcus luteus; DSM1790, read-out: Minimum Inhibitory Concentration (MIC)): 8.3 µg/mL (≈ 13.6 µM)
- MIC (Staphylococcus aureus; DSM346, read-out: Minimum Inhibitory Concentration (MIC)): 4.2 µg/mL (≈ 6.88 µM)
- Minimum Inhibitory Concentration (MIC) (Escherichia coli): -
